# Data taken from US20250353841A1 (BIOGEN MA INC., priority 2022, published 2025).
# System: mutant Huntington (HTT) protein
# Assay: HTT Mutant HTRF iPSC assay (mHTT protein lowering)
# Format: cell-based
# Settings: human iPSC derived from a HTT patient with a poly-Q49 mutation
row,Structure (SMILES),IC50 [nM]
1,"Cc1cn2nc(-c3cc(F)c4nc(N5CCC(N6CCC6)CC5)oc4c3)cc(C)c2n1 [Compound 494, 2-(4-(azetidin-1-yl)piperidin-1-yl)-6-(2,8-dimethylimidazo[1,2-b]pyridazin-6-yl)-4-fluorobenzo[d]oxazole]",100 to 1000
2,"CCN1CCC(Nc2nc3c(F)cc(-c4cc(C)c5nc(C)cn5n4)cc3o2)CC1C (stereo not drawn) [Compound 471, 6-(2,8-dimethylimidazo[1,2-b]pyridazin-6-yl)-N-(1-ethyl-2-methylpiperidin-4-yl)-4-fluorobenzo[d]oxazol-2-amine]",< 100
3,"Cc1cn2nc(-c3cc(F)c4nc(N5CCC(N(C)C)CC5)oc4c3)cc(C(F)F)c2n1 [Compound 495, 1-(6-(8-(difluoromethyl)-2-methylimidazo[1,2-b]pyridazin-6-yl)-4-fluorobenzo[d]oxazol-2-yl)-N,N-dimethylpiperidin-4-amine]",< 100
4,"Cc1cn2nc(-c3cc(F)c4nc(N5CCC(CN6CCCC6)C5)oc4c3)cc(C)c2n1 (stereo not drawn) [Compound 483, 6-(2,8-dimethylimidazo[1,2-b]pyridazin-6-yl)-4-fluoro-2-(3-(pyrrolidin-1-ylmethyl)pyrrolidin-1-yl)benzo[d]oxazole]",100 to 1000
5,"Cc1cn2nc(-c3cc(F)c4nc(C5CCN(C(=O)C6CC6)CC5)cn4c3)cc(C)c2n1 [Compound 121, cyclopropyl(4-(6-(2,8-dimethylimidazo[1,2-b]pyridazin-6-yl)-8-fluoroimidazo[1,2-a]pyridin-2-yl)piperidin-1-yl)methanone]",100 to 1000
6,"Cc1cn2nc(-c3cc(F)c4nc(C5CCNCC5)nn4c3)cc(C)c2n1 [Compound 150, 6-(2,8-dimethylimidazo[1,2-b]pyridazin-6-yl)-8-fluoro-2-(4-piperidyl)-[1,2,4]triazolo[1,5-a]pyridine]",< 100
7,"Cc1cn2nc(-c3cc(F)c4[nH]c(C5C6CN(C)CC65)nc4c3)cc(C)c2n1 (stereo not drawn) [Compound 430, 6-(7-fluoro-2-(3-methyl-3-azabicyclo[3.1.0]hexan-6-yl)-1H-benzo[d]imidazol-5-yl)-2,8-dimethylimidazo[1,2-b]pyridazine]",< 100
8,"Cc1cn2nc(-c3cc(F)c4nc(N5CCC6(CCN(C)C6)C5)oc4c3)cc(C)c2n1 (stereo not drawn) [Compound 501, 6-(2,8-dimethylimidazo[1,2-b]pyridazin-6-yl)-4-fluoro-2-(7-methyl-2,7-diazaspiro[4.4]nonan-2-yl)benzo[d]oxazole]",100 to 1000
9,"Cc1cn2nc(-c3cc(F)c4nn(CC5CCNC5)nc4c3)cc(C)c2n1 (stereo not drawn) [Compound 386, 6-(2,8-dimethylimidazo[1,2-b]pyridazin-6-yl)-4-fluoro-2-(pyrrolidin-3-ylmethyl)-2H-benzo[d][1,2,3]triazole]",< 100
10,"Cc1cn2nc(-c3cc(F)c4nc([C@H]5[C@@H]6CN(CCF)C[C@@H]65)cn4c3)cc(C)c2n1 [Compound 216, 6-(8-fluoro-2-((1R,5S,6r)-3-(2-fluoroethyl)-3-azabicyclo[3.1.0]hexan-6-yl)imidazo[1,2-a]pyridin-6-yl)-2,8-dimethylimidazo[1,2-b]pyridazine]",100 to 1000
11,"COc1cc(-c2cc(F)c3nn(C4CCN(C)CC4)cc3c2)nn2nc(C)nc12 [Compound 358, 6-(7-fluoro-2-(1-methylpiperidin-4-yl)-2H-indazol-5-yl)-8-methoxy-2-methyl-[1,2,4]triazolo[1,5-b]pyridazine]",< 100
12,"Cc1cn2nc(-c3cc(F)c4nc([C@H]5CC[C@@]6(CCNC6)CC5)nn4c3)cc(C)c2n1 [Compound 452, (5r,8r)-8-(6-(2,8-dimethylimidazo[1,2-b]pyridazin-6-yl)-8-fluoro-[1,2,4]triazolo[1,5-a]pyridin-2-yl)-2-azaspiro[4.5]decane]",100 to 1000
13,"Cc1cn2nc(-c3cc(F)c4nc(NC(=O)C5CCN(C)CC5)cn4c3)cc(C)c2n1 [Compound 269, N-(6-(2,8-dimethylimidazo[1,2-b]pyridazin-6-yl)-8-fluoroimidazo[1,2-a]pyridin-2-yl)-1-methylpiperidine-4-carboxamide]",< 100
14,"Cc1cc(-c2cc(F)c3nn(C4CCN(C)CC4)cc3c2)cc2cn(C)nc12 [Compound 356, 7-fluoro-2′,7′-dimethyl-2-(1-methylpiperidin-4-yl)-2H,2′H-5,5′-biindazole]",100 to 1000
15,"Cc1cn2nc(-c3cc(F)c4nc(C[C@H]5C[C@H](N)C5)nn4c3)cc(C)c2n1 [Compound 449, (1r,3r)-3-((6-(2,8-dimethylimidazo[1,2-b]pyridazin-6-yl)-8-fluoro-[1,2,4]triazolo[1,5-a]pyridin-2-yl)methyl)cyclobutan-1-amine]",100 to 1000
16,"Cc1cn2nc(-c3cc(F)c4nc(N5CCC56CCN(C)CC6)oc4c3)cc(C)c2n1 [Compound 493, 6-(2,8-dimethylimidazo[1,2-b]pyridazin-6-yl)-4-fluoro-2-(7-methyl-1,7-diazaspiro[3.5]nonan-1-yl)benzo[d]oxazole]",100 to 1000
17,"CN1C(=O)COc2cc(-c3cc(F)c4nc(C5CCNCC5)cn4c3)cnc21 [Compound 73, 7-(8-fluoro-2-(piperidin-4-yl)imidazo[1,2-a]pyridin-6-yl)-4-methyl-2H-pyrido[3,2-b][1,4]oxazin-3(4H)-one]",1000 to 9000
18,"Cc1cn2nc(-c3cc(F)c4nc(C5CCN(C6COC6(C)C)CC5)cn4c3)cc(C)c2n1 (stereo not drawn) [Compound 210, 6-(2-(1-(2,2-dimethyloxetan-3-yl)piperidin-4-yl)-8-fluoroimidazo[1,2-a]pyridin-6-yl)-2,8-dimethylimidazo[1,2-b]pyridazine]",100 to 1000
19,"COc1cc(-c2cc(F)c3nc(C4CCNCC4)cn3c2)cc2cn(C)nc12 [Compound 83, 5-(8-fluoro-2-(piperidin-4-yl)imidazo[1,2-a]pyridin-6-yl)-7-methoxy-2-methyl-2H-indazole]",100 to 1000
20,"Cc1cn2nc(-c3cc(F)c4nc(C5C6CCC5CNC6)cn4c3)cc(C)c2n1 (stereo not drawn) [Compound 183, 6-(2-(3-azabicyclo[3.2.1]]octan-8-yl)-8-fluoroimidazo[1,2-a]pyridin-6-yl)-2,8-dimethylimidazo[1,2-blpyridazine]",100 to 1000
21,"Cc1cn2nc(-c3cc(F)c4nc(C5CCC6(CC5)CC(N)C6)[nH]c4c3)cc(C)c2n1 (stereo not drawn) [Compound 559, 7-(6-(2,8-dimethylimidazo[1,2-b]pyridazin-6-yl)-4-fluoro-1H-benzo[d]imidazol-2-yl)spiro[3.5]nonan-2-amine]",100 to 1000
22,"Cc1cn2nc(-c3cc(F)c4nn(C5CCN(C)CC5)cc4c3)cc(C(F)F)c2n1 [Compound 363, 8-(difluoromethyl)-6-(7-fluoro-2-(1-methylpiperidin-4-yl)-2H-indazol-5-yl)-2-methylimidazo[1,2-b]pyridazine]",< 100
23,"CCN1CC[C@@H](N(C)c2nc3c(F)cc(-c4cc(C)c5nc(C)cn5n4)cc3o2)C[C@@H]1C (relative stereo) [Compound 488, rel-6-(2,8-dimethylimidazo[1,2-b]pyridazin-6-yl)-N-((2R,4S)-1-ethyl-2-methylpiperidin-4-yl)-4-fluoro-N-methylbenzo[d]oxazol-2-amine]",100 to 1000
24,"Cc1cn2nc(-c3cc(F)c4nc(NC(=O)[C@H]5C[C@H](N(C)C)C5)cn4c3)cc(C)c2n1 [Compound 288, (1r,3r)-3-(dimethylamino)-N-(6-(2,8-dimethylimidazo[1,2-b]pyridazin-6-yl)-8-fluoroimidazo[1,2-a]pyridin-2-yl)cyclobutane-1-carboxamide]",< 100
